Data published in patent publication US20230263770A1, “THERAPY OF POST-OPERATIVE NAUSEA AND VOMITING” (ACACIA PHARMA LTD, priority 2020, published 2023).
“Also recorded” adds a separate entry of the source.

Key:
[1] = test system: adult surgical patients at moderate-to-high risk of suffering PONV; test: Phase II dose-ranging trial, IV amisulpride as PONV prophylaxis; format: in vivo, human; settings: for incidence of PONV: prophylaxis
Experimental: In a multi-centre, double-blind, randomised, dose-ranging Phase II trial (conducted by the applicant), amisulpride was given intravenously to adult surgical patients at moderate-to-high risk of suffering PONV (prophylaxis), at doses of 1 mg, 5 mg and 20 mg, with a fourth group receiving placebo.

[2] = test system: adult surgical patients at moderate-to-high risk of suffering PONV; test: Two Phase III placebo-controlled trials, PONV prophylaxis; format: in vivo, human; settings: 5 mg, 626 evaluable patients, vs 59% placebo, p<0.01
[3] = test system: adult surgical patients at high risk of suffering PONV; test: Phase III trial, amisulpride in combination with a standard anti-emetic, PONV prophylaxis; format: in vivo, human; settings: 5 mg in combination with a standard anti-emetic, 1147 evaluable patients; vs 53% placebo combination, p<0.001
[4] = test system: patients who had not received prior prophylaxis; test: Clinical trial, treatment of PONV in patients without prior prophylaxis; format: in vivo, human; settings: doses of 5 mg and 10 mg; no difference between the doses
Experimental: In another clinical trial conducted by the applicant, amisulpride at doses of 5 mg and 10 mg were compared with placebo for the treatment of PONV, in patients who had not received prior prophylaxis.

[5] = test system: patients having a high BMI (≥30); test: Study 1: prophylaxis of PONV in patients with a high BMI (complete response and secondary endpoints); format: in vivo, human; settings: for CR (PONV) 0-2 hours / CR (PONV) 0-24 hours / CR (emesis) / CR (nausea) / CR (severe nausea): prophylactic therapy, 5 mg
Experimental: (§1) A randomised, double-blind, placebo-controlled study of amisulpride for IV injection as treatment against post-operative nausea and vomiting in patients having a high BMI (≥30) was conducted. The primary aim of the study was to compare the efficacy of 5 mg and 10 mg amisulpride to placebo as treatment or prevention of PONV, in patients with a high BMI.
(§2) The study was performed in adult patients (≥18 years) having a BMI ≥30 who were undergoing elective ambulatory (day-case) or in-patient surgery under general inhalational anaesthesia for an expected duration of at least one hour from induction of anaesthesia to extubation.
(§3) Amisulpride at a dose of 5 mg (prophylaxis) or 10 mg (rescue treatment) or matching placebo was given once by slow IV administration, over about 2 minutes.
(§4) The primary efficacy variable was the absence or presence of PONV during the 24-hour post-operative period, where PONV was defined as the occurrence of one or more emetic episodes (vomiting and/or retching) or the receipt of one or more doses of rescue anti-emetic medication in the 24 hours after wound closure (prophylaxis study) or dosing (treatment study). Absence of PONV by this definition was termed “Complete Response” (CR). A number of secondary variables were evaluated including the occurrence of emesis (vomiting and/or retching).
(§5) A comparison of the incidence of CR in the 0-2 and 0-24 hour periods after surgery between the amisulpride group and the placebo group using Pearson's X2 test with Yates's continuity correction at a one-sided significance level of 2.5%. The primary efficacy analysis population was the modified intent-to-treat (mITT) population.
Secondary efficacy variables assessed by incidence (e.g., emesis) were compared between the groups using Pearson's X2 test.

[6] = test system: patients having a high BMI (≥30); test: Study 1: rescue treatment of PONV in patients with a high BMI; format: in vivo, human; settings: for CR (PONV), rescue treatment: 10 mg
Experimental: as §1, §2, §3, §4, §5

patients with BMI ≥35 = test: Study 1: treatment-emergent adverse events, prophylaxis in patients with BMI ≥35; format: in vivo, human
Experimental: as §1, §2, §3

[7] = test system: bariatric surgery patients; test: Study 1: complete response in bariatric surgery patients (prophylaxis and rescue treatment); format: in vivo, human
Experimental: (§6) The present invention is based on the results of a Phase III study of amisulpride as prophylaxis against PONV in high-risk patients, conducted by the applicant. The Phase III study results include data from two randomized, double-blind, placebo-controlled, multi-centre Phase III trials of amisulpride, either as a prophylaxis, or rescue treatment for PONV.
as §3, §4

[8] = test system: patients undergoing bariatric surgery; test: Study 1: treatment-emergent adverse events in patients undergoing bariatric surgery; format: in vivo, human; settings: 5 mg prophylaxis or 10 mg rescue treatment, n = 53
Experimental: as §6, §3

[9] = test system: patients having a high BMI (≥30); test: Study 1: prophylaxis of PONV in patients with a high BMI (complete response and secondary endpoints); format: in vivo, human; settings: IV 5 mg + another antiemetic
[10] = compared to the (R+)-enantiomer; cited from earlier work
[11] = prophylaxis, IV 5 mg + another antiemetic, BMI ≥35, mITT, P 0.011
[12] = 5 mg prophylaxis, BMI ≥35, n = 149

For `CCN1CCCC1CNC(=O)c1cc(S(=O)(=O)CC)c(N)cc1OC` (racemic) [Amisulpride, amisulpride], the “incidence of PONV” value ([1]; 1 mg intravenously, p<0.05 vs placebo (69%)) was 48%, the “incidence of PONV” value ([1]; 5 mg intravenously, p<0.01 vs placebo (69%)) was 40% and the “incidence of PONV compared to placebo” value ([1]; all amisulpride groups (1 mg, 5 mg and 20 mg)) was “lower”. The “incidence of PONV” value [2] was 48%, the “incidence of PONV” value [3] was 42% and the “treating PONV compared to placebo” value [4] was “significantly better than placebo”. For the same compound, the “CR (0-24 h), patients with CR/total” value ([5]; 5 mg prophylaxis, BMI ≥35, 42/129 for placebo) was 71/149, the “secondary endpoints compared to placebo (FIGS. 1 and 2)” value ([5]; 5 mg prophylaxis, BMI ≥35, all secondary endpoints with the exception of emesis) was “statistically significantly superior to placebo” and the “preventing PONV at 24 hours compared to placebo” value ([5]; 5 mg prophylaxis, overall study population and particularly BMI ≥35 subgroup) was “more effective than placebo”. The “absolute risk reduction, amisulpride versus placebo” value ([5]; patients with BMI ≥35 (printed 235), 0-24 h) was 15.10, the “absolute risk reduction, amisulpride versus placebo” value ([5]; patients with a BMI <35, 0-24 h) was 10.50 and the “relative risk reduction (RRR) of the incidence of PONV” value ([5]; patients with a high BMI (printed 230), compared to RRR of the overall risk of PONV) was “much higher than expected”. The “CR (PONV) 0-2 hours” value ([5]; BMI ≥30, 251 patients) was 53.0%, the “CR (PONV) 0-24 hours” value ([5]; BMI ≥30, 251 patients) was 53.0% and the “CR (emesis)” value ([5]; BMI ≥30, 251 patients) was 12.6% (251 patients). The “CR (nausea)” value ([5]; BMI ≥30, 251 patients) was 55.0% (251 patients), the “CR (severe nausea)” value ([5]; BMI ≥30, 251 patients) was 41.8% (251 patients) and the “CR (emesis)” value ([5]; BMI ≥35, 149 patients) was 14.8% (149 patients). The “CR (nausea)” value ([5]; BMI ≥35, 149 patients) was 58.4% (149 patients), the “CR (severe nausea)” value ([5]; BMI ≥35, 149 patients) was 45.0% (149 patients) and the “CR (PONV) 0-2 hours” value ([5]; BMI ≥35, 149 patients, p = 0.002) was 73.8% (p = 0.002). The “CR (PONV) 0-24 hours” value ([5]; BMI ≥35, 149 patients, p = 0.01) was 47.7% (p = 0.01), the “CR (0-24 h)” value [5, 11] was “(47.7%)” and the “CR (0-24 h), patients with CR/total” value [5, 11] was 71/149. For the same compound, the “preventing PONV compared to placebo” value ([5]; prophylaxis, patients with a high BMI) was “more effective than placebo”, the “safety and efficacy for prevention or treatment of PONV (overall conclusion)” value ([5]; single IV dose, patients with a high BMI and bariatric surgery population, post-hoc analysis) was “safe and effective; also recorded: safe and efficacious” and the “CR (PONV), rescue treatment” value ([6]; BMI ≥30, 251 patients) was 46.6% (251 patients). For the same compound, the “CR (PONV), rescue treatment” value ([6]; BMI ≥35, 149 patients) was 51.7% (149 patients), the “effectiveness as rescue treatment for PONV” value ([6]; dose of 10 mg, prior prophylaxis drug given, high (≥30) BMI and/or bariatric surgery patients) was “particularly effective” and the “CR rate, rescue treatment compared to placebo” value ([6]; patients with a high BMI) was “higher”. For the same compound, the “Number of patients with any adverse event” value (patients with BMI ≥35; [12]) was 79 n, the “Patients with any adverse event” value (patients with BMI ≥35; [12]) was “(53) %” and the “incidence of any treatment-emergent adverse events (TEAE) or serious adverse events (SAE), amisulpride vs placebo” value (patients with BMI ≥35; high BMI and bariatric subgroups) was “No material difference”. The “complete response rate (after 24 hours) compared to placebo” value ([7]; bariatric surgery patients, amisulpride prophylaxis or rescue treatment) was “higher”, the “complete response rate at 24 hours” value ([7]; bariatric surgery, amisulpride prophylaxis (5 mg), vs 7.3% placebo, P=0.16) was 18.2% and the “complete response rate at 24 hours” value ([7]; bariatric surgery, amisulpride rescue treatment (10 mg), vs 9.1% placebo, P=0.17) was 25.0%. For the same compound, the “complete response at 24 hours, patients/total” value ([7]; combined prophylaxis and rescue treatment bariatric subgroup, placebo 5/63) was 11/53, the “complete response rate at 24 hours” value ([7]; combined prophylaxis and rescue treatment bariatric subgroup, placebo 7.9%) was 20.8% and the “effectiveness for prophylaxis and rescue treatment of PONV in bariatric surgery patients vs other surgery types” value ([7]; human, in vivo) was “as effective”. For the same compound, the “Number of patients with any adverse event” value [8] was 30 n, the “Patients with any adverse event” value [8] was “(57) %” and the “CR (0-24 h)” value ([9]; BMI <35, mITT, P 0.002) was “(61.2%)”. The “CR (0-24 h), patients with CR/total” value ([9]; BMI <35, mITT, P 0.002) was 259/423, the “CR (0-24 h)” value ([9]; all patients, mITT, P <0.001) was “(57.7%)” and the “CR (0-24 h), patients with CR/total” value ([9]; all patients, mITT, P <0.001) was 330/572.

In the case of `CCN1CCCC1CNC(=O)c1cc(S(=O)(=O)CC)c(N)cc1OC` (single isomer, unassigned) [(S−)-enantiomer, (S−)-amisulpride], the “share of the therapeutic activity of amisulpride” value [10] is given as “almost all of the therapeutic activity”.
